Data from US10022345B2, “Agent for preventing and/or treating veisalgia” (SBI Pharmaceuticals Co., Ltd., priority 2011, dated 2018).
Several values for one entry are separate records, joined by “and”; a condition that tells them apart may be missing. Identical values can stand only once. Entries after “also recorded” stand apart in the source; their conditions may differ.

Key:
[1] = Example 8: case of hangover therapy, test subject A, capsule of aminolevulinic acid; format: in vivo, human; details: terrible hangover, one capsule comprising 100 mg
Procedure: Test subject A who consumed Japanese sake similarly to Example 7 without ingesting any capsules developed a terrible hangover condition. Test subject A ingested one capsule comprising 100 mg of aminolevulinic acid. As a result, symptoms started to recover after 30 minutes had passed since administration, and they had completely recovered after 1.5 hours.

[2] = Example 9: questionnaire total score of ten hangover symptoms with and without ALAs ingestion, fifteen test subjects; format: in vivo, human; details: for Total score After alcohol consumption (same day) / Total score Morning after alcohol consumption: ALAs ingested (10-150 mg total, differs per subject), sum of ten hangover symptom items each scored 0-4, one line per test subject 1-15
Procedure: The following tests were performed to more quantitatively measure that ALAs are effective for the prevention or therapy of a hangover.
In this experiment, aminolevulinic acid phosphate salt was employed as ALAs.
Each test subject, consumed alcohol in the evening for a total of two times in order to evaluate hangover symptoms in regards to each of (1) when ALAs was ingested and (2) when ALAs was not ingested. In the experiment with ALAs ingestion and the experiment without ALAs ingestion, the order for which of the experiments was performed first and the other of the experiments was performed, later was randomly selected for each test subject. Each experiment was performed with at least a few days apart.
Total amount of alcohol consumption varies by test subject. This is because a moderate amount for each test subject was consumed. Moreover, alcohol consumption was made so that the total amount of the second alcohol consumption was the same as the total amount of the first alcohol consumption (note that as exceptions, (1) the total amount of alcohol consumption when ALAs was ingested and (2) the total amount of alcohol consumption when ALAs was not ingested are not the same for test subjects 1, 2, and 12 in Table 5 below). In Table 5 below, the “total amount of alcohol consumption” indicates a value converted into the total amount of alcohol contained in beer or Japanese sake etc. consumed (in other words, in the case of a 500 ml canned beer, if the alcohol percentage is 5%, it is calculated as […]).
Moreover, for each test subject, the timing of ALAs ingestion (1) when ALAs was ingested was “at the start of alcohol consumption” and/or “after the end of alcohol consumption” as shown in Table 5 below. The ingestion of ALAs (aminolevulinic acid phosphate salt) was performed by selecting at least one from below:
(A) the capsule of Example 1 (contains 50 mg of ALAs),
(B) the capsule of Example 3 (contains 10 mg of ALAs),
(C) “Hanamitsu Drink™” (contains 5 or 10 mg of ALAs, a product generally marketed by the present applicants) for each test subject, ingested in the range of 10 mg-150 mg total.
(A) The body condition “after alcohol consumption on the day of alcohol consumption” (“after alcohol consumption (same day)” in Table 5) and (B) the body condition on “the morning after the day of alcohol consumption” (“morning after alcohol consumption” in Table 5) were quantified with the following scores. In other words, a five-step evaluation (0: no indication, 1: mild, 2: moderate, 3: severe, and 4: profound) was performed for each test subject in regards to the following ten items (a-j) which are hangover symptoms. Then, evaluation values (0-4) for each item were summed for each test subject. The results are described in Table 5 as the “total score” showing hangover symptoms.

[3] = phosphate salt, 10 mg ALAs with 60 mL alcohol
[4] = phosphate salt, 20 mg ALAs with 70 mL alcohol
[5] = phosphate salt, 50 mg ALAs with 14 mL alcohol
[6] = phosphate salt, 50 mg ALAs with 25 mL alcohol
[7] = phosphate salt, 50 mg ALAs with 45 mL alcohol
[8] = phosphate salt, 50 mg ALAs with 79 mL alcohol
[9] = phosphate salt, 50 mg ALAs with 108 mL alcohol
[10] = phosphate salt, 100 mg ALAs with 50 mL alcohol
[11] = phosphate salt, 100 mg ALAs with 75 mL alcohol
[12] = phosphate salt, 100 mg ALAs with 190 mL alcohol
[13] = phosphate salt, 150 mg ALAs with 129 mL alcohol

With `NCC(=O)CCC(=O)O` [aminolevulinic acid, 5-aminolevulinic acid] the “time after administration until hangover symptoms started to recover” value [1] was 30 min and the “time until complete recovery from hangover” value [1] was 1.5 h.

In the case of “aminolevulinic acid phosphate salt [ALAs]”, the “Total score After alcohol consumption (same day)” value [2, 3] is reported as 9, the “Total score Morning after alcohol consumption” value (from here on “Total score Morning”) [2, 3] is reported as 2 and the “Total score After alcohol consumption (same day)” value [2, 4] is reported as 1. The “Total score Morning” value [2, 4] was 1, the “Total score After alcohol consumption (same day)” value [2, 5] was 0 and the “Total score Morning” value [2, 5] was 0. The “Total score After alcohol consumption (same day)” value [2, 6] was 0 (2×) and 3, the “Total score Morning” value [2, 6] was 0 (2×) and 3 and the “Total score After alcohol consumption (same day)” value [2, 7] was 0. For the same compound, the “Total score Morning” value [2, 7] was 0, the “Total score After alcohol consumption (same day)” value [2, 8] was 0 and the “Total score Morning” value [2, 8] was 0. The “Total score After alcohol consumption (same day)” value [2, 9] was 0, the “Total score Morning” value [2, 9] was 0 and the “Total score After alcohol consumption (same day)” value [2, 10] was 1. For the same compound, the “Total score Morning” value [2, 10] was 1, the “Total score After alcohol consumption (same day)” value [2, 11] was 0 and the “Total score Morning” value [2, 11] was 1 and 0 and 2. For the same compound, the “Total score After alcohol consumption (same day)” value [2, 12] was 9, the “Total score Morning” value [2, 12] was 7 and the “Total score After alcohol consumption (same day)” value [2, 13] was 0. For the same compound, the “Total score Morning” value [2, 13] was 1, the “amount of alcohol consumption possible” value ([2]; ALAs ingested at the start of alcohol consumption, test subjects 1 and 2) was “Alcohol consumption at an amount more than usual was possible” and the “hangover symptoms with ALAs ingestion compared to without, conclusions from Table 5” value ([2]; subgroups of test subjects, phosphate salt) was “hangover symptoms were surprisingly mostly reduced; also recorded: Hangover symptoms were generally improved and a prophylactic effect of hangovers was seen; also recorded: no hangover symptoms manifested”.
